Laboratory results reported in PubChem BioAssay AID489022 (Sanford-Burnham Center for Chemical Genomics, 2010).
Active and inactive are the calls of the source. No rule for the calls is given here.

Test system: HEK-293T NF-kB luciferase reporter, luminescence counterscreen
Assay: NF-kB reporter suppression in HEK-293T cells – luminescence, B-cell screen hits, counter-screen for BCR NF-kB inhibitor project, dose response (AID 489022)

Compound | IC50
Cc1[nH]c2ccccc2c1/C=N/Nc1nc(Nc2ccccc2)nc(N2CCOCC2)n1 | > 80 µM (inactive)
Cn1c(=NC(=O)CCl)sc2ccccc21 | 21.6 µM (inactive)
Cc1ccc(C(=O)CSc2nnc(COc3ccccc3)o2)cc1 | 40.9 µM (inactive)
Cc1ccc(C(=O)CSc2nnc(COc3cc(C)cc(C)c3)o2)cc1 | 24.9 µM (inactive)
O=C(CCCN1C(=O)/C(=C/c2ccccc2Cl)SC1=S)NNC(=O)c1ccc(Cl)cc1Cl | > 80 µM (inactive)
Cc1ccc(/C=C2\SC(=S)N(CCCC(=O)Nc3ccccn3)C2=O)cc1 | 32.1 µM (inactive)
N=c1c2c(n(Cc3ccc(Cl)c(Cl)c3)c3c1CCC3)CCCC2 | 2.35 µM
COc1cc(OC)cc(-c2cc3nc(C)c(CCC(=O)Nc4nc(C)cs4)c(C)n3n2)c1 | > 80 µM (inactive)
Cc1ccc(NC(=O)O/N=C/c2c(C)nn(C(C)(C)C)c2C)cc1Cl | < 0.16 µM
O=[N+]([O-])c1ccc(Sc2cc[n+]([O-])c3ccccc23)c([N+](=O)[O-])c1 | > 80 µM (inactive)
CCn1c(=O)cc(SCC(=O)N2CCN(C)CC2)c2ccccc21 | > 80 µM (inactive)
CCn1c(=O)cc(SCC(=O)N2CCC(C)CC2)c2ccccc21 | 70.9 µM (inactive)
COc1cc(NC(=O)c2cc3c(C)nc4ccccc4c3o2)cc(OC)c1OC | 18.4 µM
Cc1ccc(NC(=O)C2CCC(CNc3c(N4CCC(C)CC4)c(=O)c3=O)CC2)cc1F (centres undefined) | > 80 µM (inactive)
COc1ccc(-c2nsc(SCC(=O)Nc3cc(C)on3)n2)cc1 | > 80 µM (inactive)
Cc1ccc(C(=O)N2CCCC(c3ccc(Cl)cc3)=N2)cc1 | 36.5 µM (inactive)
Cn1c(=O)cc(OCC(=O)N2CCC3(CC2)OCCO3)c2ccccc21 | > 80 µM (inactive)
Cc1ccc(-n2c(-c3ccccc3)c[n+]3c2CCc2ccccc2-3)c(C)c1 | 2.15 µM
COC(=O)CSc1nnc(-c2sc3ccccc3c2Cl)o1 | 7.24 µM
COc1ccc(/C=C2/SC(=S)N(CCCC(=O)Nc3ccc(O)cc3)C2=O)cc1OC | > 80 µM (inactive)
COc1cccc(Cn2nnc(C(=O)Nc3cc(Cl)ccc3OC)c2N)c1 | > 80 µM (inactive)
CCOc1ccc(-c2cc(CCCC(=O)NCc3ccco3)no2)cc1 | 22.1 µM (inactive)
CCC(C)NC(=O)c1c(N)n(/N=C/c2ccccn2)c2nc3ccccc3nc12 (centres undefined) | 34.8 µM (inactive)
COc1ccc(/C=C2/SC(=S)N(CCCC(=O)Nc3ccc(O)cc3)C2=O)cc1 | > 80 µM (inactive)
COc1cc(OC)cc(-c2cc3nc(C)c(CCC(=O)NCc4ccccc4)c(C)n3n2)c1 | 10.5 µM

Compound | IC50
Cc1ccc(C)c(OCc2ccc(C(=O)NN)o2)c1 | > 80 µM (inactive)
CCC(CC)C(=O)Nc1ccc(Sc2ccc([N+](=O)[O-])cc2)cc1 | 13.7 µM
O=C(Nc1nc2nc(-c3ccccc3)cc(-c3ccccc3)n2n1)c1ccco1 | 23.5 µM (inactive)
Cc1ccccc1-n1c(SCc2c(C)noc2C)nnc1-c1c[nH]c2ccccc12 | 33.8 µM (inactive)
COc1ccccc1/C=C1/SC(=S)N(CCC(=O)Nc2cccnc2)C1=O | 37 µM (inactive)
Cc1nc2cc(-c3ccccc3)nn2c(C)c1CCC(=O)N1CCC2(CC1)OCCO2 | 52 µM (inactive)
CCCCCCn1c(-c2ccco2)nc2oc3cc(OC)ccc3c(=O)c2c1=O | > 80 µM (inactive)
CC(C)N1C(=O)S/C(=C/c2ccc3c(c2)n(C)c(=O)n3C)C1=O | > 80 µM (inactive)
CN1C(=O)CC(c2ccco2)Sc2ccccc21 (centres undefined) | > 80 µM (inactive)
Cc1ccc(Sc2cc(NCCCO)c([N+](=O)[O-])c3nonc23)cc1 | > 80 µM (inactive)
COCCCNC(=O)COc1ccc(-c2nccc(-c3ccccn3)n2)cc1 | 48.1 µM (inactive)
COc1ccc(-c2noc(CCCC(=O)O)n2)cc1 | 4.02 µM
COc1cc(Br)c(C(=O)c2nccc3cc(OC)c(OC)cc23)cc1OC | 27.5 µM (inactive)
COc1ccc(C(=O)Nc2ccccc2C(=O)NCc2ccco2)cc1OC | > 80 µM (inactive)
Cc1nc2cc(-c3cccc(F)c3)nn2c(C)c1CCC(=O)NC(C)CCc1ccco1 (centres undefined) | 11.4 µM
O=C(NNC(=O)C12CC3CC(CC(C3)C1)C2)c1cccc(O)c1 | > 80 µM (inactive)
C#CCN(Cc1ccccc1)S(=O)(=O)C=C | 51.3 µM (inactive)
CC(C)C[C@@H](N)c1nnc(SCC(=O)c2ccc(Cl)cc2)o1 | 31.9 µM (inactive)
CCCNC(=O)CSCc1nc(-c2ccc(SC)cc2)oc1C | 38.5 µM (inactive)
COc1ccc(C(=O)n2nc(-c3ccc(Cl)cc3)nc2N)cc1OC | > 80 µM (inactive)
CC1Cc2ccccc2N1S(=O)(=O)c1cnc(Cl)c(Cl)c1 (centres undefined) | 77.8 µM (inactive)
CCn1c(CN2CCN(c3ccc(Cl)cc3)CC2)nc2ccccc21 | 9.25 µM
CC1=CC(C)(C)Nc2ccc(OC(=O)C(C)N3C(=O)c4ccccc4C3=O)cc21 (centres undefined) | 11.5 µM
CCOc1cc(/C=N\Nc2nc(Nc3ccccc3)nc(N3CCOCC3)n2)ccc1OC(=O)c1ccco1 | > 80 µM (inactive)
O=C(CCl)N1CCN(S(=O)(=O)c2ccc3c(c2)CCC3)CC1 | 41.9 µM (inactive)

Compound | IC50
COc1ccc(C=C(C(C)=O)C(C)=O)cc1OC | > 80 µM (inactive)
COc1cccc(N2CCN(c3ncnc4c3[nH]c3ccc(F)cc34)CC2C)c1 (centres undefined) | 0.66 µM
Oc1cc(O)cc(-c2cc3ccc(O)cc3o2)c1 | > 80 µM (inactive)
COc1ccc(NC(=O)c2nnn(Cc3cccc(F)c3)c2N)c(OC)c1 | > 80 µM (inactive)
COC(=O)[C@@]12OC[C@]34[C@H]([C@@H](O)[C@@H]1O)[C@@]1(C)C(=O)C(O[C@@H]5OC(CO)[C@@H](O)[C@@H](O)[C@@H]5O)=C[C@@H](C)[C@@H]1C[C@H]3OC(=O)[C@H](OC(=O)/C=C(\C)C(C)(C)OC(C)=O)[C@@H]24 (some centres undefined) | 3.2 µM
Cc1nn(C)c(C)c1CN(C)S(=O)(=O)c1ccc2ccccc2c1 | 0.36 µM
CCN(CC)CCOC(=O)c1ccc(NC(=O)CCCN2C(=O)S/C(=C/c3ccc(OC)cc3)C2=S)cc1 | 11.6 µM
O=C(NNC(=O)C12CC3CC(CC(Br)(C3)C1)C2)c1ccccc1F | > 80 µM (inactive)
C=CCOc1ccccc1CN(C(=O)CCl)c1ccc2c(c1)OCO2 | 28.1 µM (inactive)
CC(C)(C)c1ccc(-c2cc(N)n[nH]2)cc1 | > 80 µM (inactive)
O=C(N/N=C/c1ccc(Cl)cc1Cl)c1ccc(-n2cnnn2)cc1 | > 80 µM (inactive)
CC(C)(C)c1ccc(-c2nnc(SCC(=O)NC3CC3)o2)cc1 | 63.1 µM (inactive)
Cc1nc2cc(-c3ccccc3)nn2c(C)c1CCC(=O)NCc1ccco1 | > 80 µM (inactive)
CCc1ccc(/C=C2\SC(=S)N(CCCC(=O)Nc3ccccn3)C2=O)cc1 | > 80 µM (inactive)
CC1(C)CC2CC(C)(CN2S(=O)(=O)c2ccc(C(=O)Nc3ccc(S(=O)(=O)N4CCOCC4)cc3)cc2)C1 (centres undefined) | 0.68 µM
CC1CCc2c(sc3nc(C(C)(C)C)nc(N4CCN(C(=O)CCl)CC4)c23)C1 (centres undefined) | 30.6 µM (inactive)
Cc1cc(OCC(=O)NC2CC2)c2c(C)c(C)c(=O)oc2c1 | > 80 µM (inactive)
CCOC(=O)C1CCN(c2ncnc3c2cnn3-c2ccc(Cl)cc2)CC1 | 1.25 µM
CCc1ccc(-c2nnn(CCC(=O)OC)n2)cc1 | 0.6 µM
Cc1ccc(C)c(-n2nnnc2Sc2nnnn2-c2ccccc2)c1 | 6.7 µM
CCC(=O)N1c2ccccc2C(N(C(C)=O)c2ccccc2)CC1C (centres undefined) | > 80 µM (inactive)
CCCC(=O)Nc1ccc(Sc2ccc([N+](=O)[O-])cc2)cc1 | 8.35 µM
CCC(C)[C@H](N)c1nnc(SCC(=O)c2ccc(Cl)cc2)o1 (some centres undefined) | > 80 µM (inactive)
CCN1C(=O)c2cccc3c(S(=O)(=O)Nc4ccccn4)ccc1c23 | 9.44 µM
CCOc1ccc(/C=C2\SC(=S)N(CCC(=O)Nc3ccc(C(=O)O)cc3)C2=O)cc1 | > 80 µM (inactive)

Compound | IC50
CCCCCOc1ccc(NC(=O)C(=O)NCCCn2ccnc2)cc1 | 42.8 µM (inactive)
Nc1ccccc1SCC(=O)Nc1nc(-c2ccccc2)cs1 | 11.8 µM
CC(C)c1ccc(/C=C2\SC(=S)N(CCC(=O)N3CCCCC3CCO)C2=O)cc1 (centres undefined) | 17.5 µM
Cc1ccc(-c2nn3c(C)nnc3c3ccccc23)cc1S(=O)(=O)NC(C)(C)CO | 27.6 µM (inactive)
Cc1noc(C)c1CSc1nc2[nH]ncc2c(=O)n1-c1ccccc1 | 7.74 µM
CNC(=O)CSc1nc2nn(-c3ccccc3)c(=O)c-2c2n1CCCCC2 | > 80 µM (inactive)
CCN(CC)c1ccc(/C=C2/C(=O)ON=C2C)cc1 | > 80 µM (inactive)
N=c1c2c(n(Cc3cccc(Cl)c3)c3c1CCC3)CCCC2 | 3.77 µM
CCN(CC(=O)Nc1c(F)cccc1F)C(=O)c1cc([N+](=O)[O-])ccc1N1CCCCC1 | > 80 µM (inactive)
CCOc1ccc(-c2noc(CCC(=O)O)n2)cc1 | 8.98 µM
CCCOc1ccc(NC(=O)C(=O)NCCCn2ccnc2)cc1 | > 80 µM (inactive)
COc1ccc2nc(Sc3c([N+](=O)[O-])nc(C)n3Cc3ccccc3)[nH]c2c1 | 55.4 µM (inactive)
CCN(CC)C(=O)c1ccc(S(=O)(=O)Cc2ccc(C)cc2)c([N+](=O)[O-])c1 | 34.7 µM (inactive)
CCn1c(=O)cc(OCC(=O)Nc2ccc(OC)c(OC)c2)c2ccccc21 | 70.3 µM (inactive)
Cc1cc(N(C)C)ccc1N=Nc1ccc(N)cc1 | 64.3 µM (inactive)
COc1ccc(/C=C2\SC(=S)N(CCCC(=O)Nc3ccc(O)cc3)C2=O)cc1 | > 80 µM (inactive)
Cc1[nH]c2ccccc2c1/C=N/Nc1nc(Nc2ccc(F)cc2)nc(N2CCOCC2)n1 | > 80 µM (inactive)
Cc1ccc(C(=O)NNC(=O)CCCN2C(=O)/C(=C/c3ccccc3Cl)SC2=S)cc1 | 30.8 µM (inactive)
COc1ccc2nc(C)cc(Sc3nc4ccccc4s3)c2c1 | 11.2 µM
CC1CCN(CCCNC(=O)COc2cc(=O)n(C)c3ccccc23)CC1 | > 80 µM (inactive)
COc1ccc(C(=O)Nc2cccc(NC(=O)c3ccc(OC)c(OC)c3)n2)cc1OC | 15.4 µM
COc1ccc(C(=O)Nc2nnc(SCC(=O)Nc3ccc(NC(C)=O)cc3)s2)c(OC)c1 | > 80 µM (inactive)
CC1(c2nnc(-c3cccc(Cl)c3)o2)CC(c2cccc(Cl)c2)=NO1 (centres undefined) | 29.9 µM (inactive)
CC1CN(S(=O)(=O)c2ccc(C(=O)Nc3nc(-c4cc5ccccc5o4)cs3)cc2)CC(C)O1 (centres undefined) | < 0.16 µM
